Our source for the remaining binding values is patent US12240844B2 (Voronoi, Inc., priority 2019, dated 2025).

What all share (assay): scanMAX Kinase panel (DiscoverX), % control
Common to all, as to type: binding
What all share (conditions): <35% = active

For one assay, the target named is T1, ALK (Homo sapiens, UniProt Q9UM73).
T1 construct: purchased DiscoverX
A digest of the protocol:
(§1)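 Tested at 1 uM in DMSO across scanMAX kinases; % control referenced to vehicle and positive control, hit threshold <35%.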

The target of a further assay is T2, CLK1 (Homo sapiens, UniProt P49759).
T2 construct: purchased DiscoverX
T2 sequence (P49759 whole entry): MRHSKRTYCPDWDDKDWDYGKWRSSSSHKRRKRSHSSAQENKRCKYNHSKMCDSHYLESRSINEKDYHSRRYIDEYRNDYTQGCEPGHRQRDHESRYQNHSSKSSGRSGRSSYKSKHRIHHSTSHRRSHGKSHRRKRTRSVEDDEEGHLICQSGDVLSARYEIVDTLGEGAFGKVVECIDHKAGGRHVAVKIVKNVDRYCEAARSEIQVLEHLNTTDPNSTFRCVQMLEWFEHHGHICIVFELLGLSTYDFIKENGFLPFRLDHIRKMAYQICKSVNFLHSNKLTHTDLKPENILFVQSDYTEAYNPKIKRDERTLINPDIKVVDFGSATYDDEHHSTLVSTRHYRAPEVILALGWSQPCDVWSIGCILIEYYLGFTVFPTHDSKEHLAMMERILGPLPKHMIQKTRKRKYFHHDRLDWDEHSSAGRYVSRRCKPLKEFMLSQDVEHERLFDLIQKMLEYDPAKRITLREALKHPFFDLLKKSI
In short, it runs like this: as §1

The target of the next assay is T3, CLK3 (Homo sapiens, UniProt P49761).
T3 construct: purchased DiscoverX
T3 sequence (P49761 whole entry): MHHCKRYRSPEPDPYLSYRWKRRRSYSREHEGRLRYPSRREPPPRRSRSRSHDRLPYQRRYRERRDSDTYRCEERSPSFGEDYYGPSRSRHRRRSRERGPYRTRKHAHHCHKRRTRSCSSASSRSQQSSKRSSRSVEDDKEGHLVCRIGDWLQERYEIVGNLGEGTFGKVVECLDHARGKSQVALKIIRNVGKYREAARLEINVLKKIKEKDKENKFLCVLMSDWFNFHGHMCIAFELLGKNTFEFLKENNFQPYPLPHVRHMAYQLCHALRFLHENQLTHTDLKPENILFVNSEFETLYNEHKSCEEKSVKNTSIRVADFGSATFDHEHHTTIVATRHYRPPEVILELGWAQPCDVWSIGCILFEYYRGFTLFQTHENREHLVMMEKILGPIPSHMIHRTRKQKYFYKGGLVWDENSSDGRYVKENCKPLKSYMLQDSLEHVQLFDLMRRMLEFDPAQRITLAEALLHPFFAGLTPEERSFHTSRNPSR
A digest of the protocol:
as §1

The target in a further assay is T4, CLK4 (Homo sapiens, UniProt Q9HAZ1).
T4 construct: purchased DiscoverX
T4 sequence (Q9HAZ1 whole entry): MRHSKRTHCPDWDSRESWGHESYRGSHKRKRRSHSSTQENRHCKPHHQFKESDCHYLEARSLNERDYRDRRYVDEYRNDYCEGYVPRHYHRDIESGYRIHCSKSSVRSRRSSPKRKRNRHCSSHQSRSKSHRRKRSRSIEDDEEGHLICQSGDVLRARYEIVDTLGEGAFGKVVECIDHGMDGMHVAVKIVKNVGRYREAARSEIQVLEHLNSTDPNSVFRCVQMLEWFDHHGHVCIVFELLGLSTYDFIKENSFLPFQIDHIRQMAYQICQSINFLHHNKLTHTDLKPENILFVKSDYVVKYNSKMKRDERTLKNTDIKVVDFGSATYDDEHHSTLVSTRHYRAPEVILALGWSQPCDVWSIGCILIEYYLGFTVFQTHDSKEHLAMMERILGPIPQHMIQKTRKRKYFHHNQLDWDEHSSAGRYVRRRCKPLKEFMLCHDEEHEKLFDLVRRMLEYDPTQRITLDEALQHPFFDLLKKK
In short, it runs like this:
as §1

Another assay has as its target T5, DYRK1B (Homo sapiens, UniProt Q9Y463).
T5 construct: purchased DiscoverX
In short, it runs like this:
as §1

Another assay addresses T6, DYRK2 (Homo sapiens, UniProt Q92630).
T6 construct: purchased DiscoverX
T6 sequence (Q92630 1-601): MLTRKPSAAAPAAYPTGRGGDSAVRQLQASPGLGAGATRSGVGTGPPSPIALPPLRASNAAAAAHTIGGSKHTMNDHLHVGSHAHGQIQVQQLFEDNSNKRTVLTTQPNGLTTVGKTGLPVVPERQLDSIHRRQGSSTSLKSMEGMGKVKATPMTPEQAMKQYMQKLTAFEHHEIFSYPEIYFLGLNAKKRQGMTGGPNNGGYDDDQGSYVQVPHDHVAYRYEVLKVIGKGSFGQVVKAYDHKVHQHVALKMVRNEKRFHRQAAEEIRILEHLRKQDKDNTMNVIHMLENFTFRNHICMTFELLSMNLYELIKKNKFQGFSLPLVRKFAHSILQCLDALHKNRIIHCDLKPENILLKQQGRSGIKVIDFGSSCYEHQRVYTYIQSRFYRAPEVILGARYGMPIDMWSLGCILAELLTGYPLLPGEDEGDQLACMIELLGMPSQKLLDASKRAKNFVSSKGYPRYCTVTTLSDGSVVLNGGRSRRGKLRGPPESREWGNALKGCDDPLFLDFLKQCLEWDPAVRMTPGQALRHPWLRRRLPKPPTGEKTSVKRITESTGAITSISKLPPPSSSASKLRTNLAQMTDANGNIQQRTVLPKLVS
In short, it runs like this:
as §1

For a further assay, the target named is T7, GAK (Homo sapiens, UniProt O14976).
T7 construct: purchased DiscoverX
T7 sequence (O14976 1-1311): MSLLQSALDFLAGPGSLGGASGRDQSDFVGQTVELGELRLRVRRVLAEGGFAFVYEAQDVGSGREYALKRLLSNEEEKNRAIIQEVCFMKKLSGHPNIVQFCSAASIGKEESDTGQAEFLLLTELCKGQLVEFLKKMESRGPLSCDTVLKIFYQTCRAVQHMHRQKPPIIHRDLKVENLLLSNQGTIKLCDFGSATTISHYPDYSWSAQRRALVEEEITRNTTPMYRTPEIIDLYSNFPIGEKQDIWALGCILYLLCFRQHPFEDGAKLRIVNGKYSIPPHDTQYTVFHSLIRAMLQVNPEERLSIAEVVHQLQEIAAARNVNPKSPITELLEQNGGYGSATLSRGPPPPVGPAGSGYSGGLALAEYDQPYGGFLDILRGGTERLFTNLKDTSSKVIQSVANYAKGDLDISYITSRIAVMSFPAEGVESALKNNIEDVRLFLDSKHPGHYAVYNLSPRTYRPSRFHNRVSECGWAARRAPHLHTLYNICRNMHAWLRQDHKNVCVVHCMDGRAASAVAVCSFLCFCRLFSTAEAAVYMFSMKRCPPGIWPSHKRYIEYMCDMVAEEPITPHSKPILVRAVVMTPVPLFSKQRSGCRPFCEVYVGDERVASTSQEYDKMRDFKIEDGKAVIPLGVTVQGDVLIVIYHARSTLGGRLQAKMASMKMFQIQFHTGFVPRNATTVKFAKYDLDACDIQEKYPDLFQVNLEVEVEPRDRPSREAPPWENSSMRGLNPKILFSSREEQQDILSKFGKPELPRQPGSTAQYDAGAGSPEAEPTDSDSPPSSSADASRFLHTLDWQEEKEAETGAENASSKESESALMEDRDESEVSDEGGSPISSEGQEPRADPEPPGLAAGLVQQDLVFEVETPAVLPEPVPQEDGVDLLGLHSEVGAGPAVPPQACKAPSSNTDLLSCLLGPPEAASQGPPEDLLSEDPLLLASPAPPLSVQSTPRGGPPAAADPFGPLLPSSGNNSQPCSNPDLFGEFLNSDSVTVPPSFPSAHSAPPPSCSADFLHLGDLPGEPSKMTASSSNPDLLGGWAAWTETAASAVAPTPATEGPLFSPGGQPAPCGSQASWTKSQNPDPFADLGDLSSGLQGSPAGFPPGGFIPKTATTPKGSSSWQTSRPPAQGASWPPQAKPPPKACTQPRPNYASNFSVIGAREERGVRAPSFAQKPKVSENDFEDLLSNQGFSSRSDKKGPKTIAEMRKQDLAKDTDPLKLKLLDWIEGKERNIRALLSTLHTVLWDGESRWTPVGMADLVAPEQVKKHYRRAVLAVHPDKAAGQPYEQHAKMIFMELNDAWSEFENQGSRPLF
In short, it runs like this:
as §1

T5 sequence (Q9Y463 whole entry): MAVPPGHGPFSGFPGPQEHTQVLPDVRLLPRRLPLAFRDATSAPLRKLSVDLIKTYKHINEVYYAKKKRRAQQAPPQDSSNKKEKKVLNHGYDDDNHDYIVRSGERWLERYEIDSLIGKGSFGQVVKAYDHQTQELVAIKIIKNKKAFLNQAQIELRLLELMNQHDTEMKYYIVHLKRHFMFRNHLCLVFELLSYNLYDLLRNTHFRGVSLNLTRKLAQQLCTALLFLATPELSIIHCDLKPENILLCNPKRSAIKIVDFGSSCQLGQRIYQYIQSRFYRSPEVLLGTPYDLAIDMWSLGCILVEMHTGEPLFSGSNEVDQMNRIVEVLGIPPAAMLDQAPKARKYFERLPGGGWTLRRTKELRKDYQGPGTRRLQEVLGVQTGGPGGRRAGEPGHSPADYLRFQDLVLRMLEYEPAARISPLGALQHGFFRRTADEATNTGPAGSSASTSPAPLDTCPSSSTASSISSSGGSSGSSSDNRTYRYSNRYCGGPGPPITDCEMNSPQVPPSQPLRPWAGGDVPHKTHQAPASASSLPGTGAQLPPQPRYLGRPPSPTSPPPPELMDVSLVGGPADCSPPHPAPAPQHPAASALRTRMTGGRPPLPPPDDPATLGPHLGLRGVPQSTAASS
T1 sequence (Q9UM73 19-1620): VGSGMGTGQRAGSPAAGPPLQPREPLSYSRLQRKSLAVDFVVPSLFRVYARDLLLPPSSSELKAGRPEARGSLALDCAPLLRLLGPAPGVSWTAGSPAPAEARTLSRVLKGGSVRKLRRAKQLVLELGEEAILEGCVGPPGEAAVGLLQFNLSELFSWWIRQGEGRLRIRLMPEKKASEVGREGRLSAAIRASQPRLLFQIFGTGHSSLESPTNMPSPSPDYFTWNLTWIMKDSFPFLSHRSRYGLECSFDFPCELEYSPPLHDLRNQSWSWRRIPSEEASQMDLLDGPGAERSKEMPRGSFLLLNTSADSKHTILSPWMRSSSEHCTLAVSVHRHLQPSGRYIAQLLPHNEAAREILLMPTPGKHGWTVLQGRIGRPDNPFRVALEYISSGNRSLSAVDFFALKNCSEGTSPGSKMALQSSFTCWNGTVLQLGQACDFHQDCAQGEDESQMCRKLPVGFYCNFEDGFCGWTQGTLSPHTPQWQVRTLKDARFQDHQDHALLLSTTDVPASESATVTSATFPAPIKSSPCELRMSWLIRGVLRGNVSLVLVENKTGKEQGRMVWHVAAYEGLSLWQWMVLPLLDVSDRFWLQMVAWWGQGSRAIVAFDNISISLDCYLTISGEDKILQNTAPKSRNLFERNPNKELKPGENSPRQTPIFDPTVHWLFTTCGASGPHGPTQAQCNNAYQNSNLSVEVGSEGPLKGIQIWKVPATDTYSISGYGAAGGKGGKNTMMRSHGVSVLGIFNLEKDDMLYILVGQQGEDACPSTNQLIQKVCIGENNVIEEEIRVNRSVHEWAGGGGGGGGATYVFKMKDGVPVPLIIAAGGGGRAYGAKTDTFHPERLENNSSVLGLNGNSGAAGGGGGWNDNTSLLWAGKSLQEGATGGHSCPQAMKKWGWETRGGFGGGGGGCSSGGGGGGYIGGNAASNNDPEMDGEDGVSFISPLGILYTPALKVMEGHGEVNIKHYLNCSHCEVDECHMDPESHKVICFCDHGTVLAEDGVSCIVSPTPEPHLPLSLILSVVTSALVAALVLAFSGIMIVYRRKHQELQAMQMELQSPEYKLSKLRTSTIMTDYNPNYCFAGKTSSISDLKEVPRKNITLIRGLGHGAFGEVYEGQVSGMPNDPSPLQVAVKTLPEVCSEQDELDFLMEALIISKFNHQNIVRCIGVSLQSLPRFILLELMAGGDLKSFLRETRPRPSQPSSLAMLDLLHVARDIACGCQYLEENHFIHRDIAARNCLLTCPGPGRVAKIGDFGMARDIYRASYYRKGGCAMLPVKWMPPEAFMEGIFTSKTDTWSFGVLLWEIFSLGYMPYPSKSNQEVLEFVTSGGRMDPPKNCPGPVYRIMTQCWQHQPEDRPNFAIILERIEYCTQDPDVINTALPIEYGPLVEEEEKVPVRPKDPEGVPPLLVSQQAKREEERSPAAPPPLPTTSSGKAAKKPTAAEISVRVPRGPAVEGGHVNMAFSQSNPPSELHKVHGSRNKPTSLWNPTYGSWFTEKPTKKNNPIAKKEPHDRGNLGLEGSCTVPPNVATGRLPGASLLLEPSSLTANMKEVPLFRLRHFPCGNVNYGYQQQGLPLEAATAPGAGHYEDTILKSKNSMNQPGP

Consider `COCCNc1cc(Nc2ccc(P3(=O)CCN(C4CC4)CC3)cc2OC)nc2[nH]cc(C(F)(F)F)c12` [Example 207, 1-cyclopropyl-4-(3-methoxy-4-((4-((2-methoxyethyl)amino)-3-(trifluoromethyl)-1H-pyrrolo[2,3-b]pyridin-6-yl)amino)phenyl)-1,4-azaphosphinane 4-oxide], for which the remaining binding at 1 µM was determined as 5.9% on ALK; 5.6% on CLK1; 66% on CLK3; 0.55% at CLK4; 0% at DYRK1B; 18% on DYRK2. Further, the remaining binding at 1 µM at GAK was determined as 38%.

With `CNc1cc(Nc2ccc(S(=O)(=O)N3CCC(N4CCOCC4)CC3)cc2OC)nc2[nH]cc(C(F)(F)F)c12` [Example 184, N^6-(2-methoxy-4-((4-morpholinopiperidin-1-yl)sulfonyl)phenyl)-N^4-methyl-3-(trifluoromethyl)-1H-pyrrolo[2,3-b]pyridine-4,6-diamine], the remaining binding at 1 µM at ALK amounted to 15%; on CLK1, 3.4%; at CLK3, 7.8%; on CLK4 it was 0.45%; on DYRK1B, 13%; at DYRK2, 14%. The same compound gave a remaining binding at 1 µM on GAK of 27%.

Turning to `O=C(c1ccc(Nc2cc(C3CC3)c3c(C(F)(F)F)c[nH]c3n2)c2c1CCO2)N1CC[C@H](N2CCOCC2)C1` [Example 237, (S)-(7-((4-cyclopropyl-3-(trifluoromethyl)-1H-pyrrolo[2,3-b]pyridin-6-yl)amino)-2,3-dihydrobenzofuran-4-yl)(3-morpholinopyrrolidin-1-yl)methanone], the remaining binding at 1 µM at ALK amounted to 14%; at CLK1, 3.6%; on CLK3 it was 58%; on CLK4, 0.55%; on DYRK1B, 1.4%; on DYRK2 it was 62%. Further, at GAK, the remaining binding at 1 µM amounted to 15%.
